Experimental data taken from ChEMBL document CHEMBL1150409, “Development of paramagnetic probes for molecular recognition studies in protein kinases” (J Med Chem, 2008).
The source made the active and inactive calls. No cut-off for these calls is given here. Peptide text beside a SMILES is read from it. * marks the point of attachment. X1 = O=C(NCCCN*)c1ccc(-c2n[nH]c3ccccc23)cc1

What was measured:
[1] = target: Mitogen-activated protein kinase 8 (Homo sapiens, UniProt P45983); assay: Inhibition of JNK1 by TR-FRET assay
Mitogen-activated protein kinase 8, sequence (P45983 whole entry, the tested form may be a part): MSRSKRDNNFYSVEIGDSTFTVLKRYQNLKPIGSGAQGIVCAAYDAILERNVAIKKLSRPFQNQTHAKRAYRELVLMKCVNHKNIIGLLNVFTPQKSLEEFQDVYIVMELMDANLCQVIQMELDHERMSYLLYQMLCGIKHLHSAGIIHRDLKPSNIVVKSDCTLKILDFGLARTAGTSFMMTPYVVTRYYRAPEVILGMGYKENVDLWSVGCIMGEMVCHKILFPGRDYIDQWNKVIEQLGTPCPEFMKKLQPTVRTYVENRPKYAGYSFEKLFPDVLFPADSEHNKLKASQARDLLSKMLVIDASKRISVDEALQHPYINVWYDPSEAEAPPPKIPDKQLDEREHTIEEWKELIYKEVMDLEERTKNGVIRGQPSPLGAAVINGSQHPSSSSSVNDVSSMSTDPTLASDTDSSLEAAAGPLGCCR

[2] = target: Mitogen-activated protein kinase 9 (Homo sapiens) (UniProt P45984); assay: Displacement of biotin-labeled pep-JIP1 from GST fused JNK2 upto 200 uM by DELFIA assay
Mitogen-activated protein kinase 9 (Homo sapiens), sequence (P45984 whole entry, looked up, the tested form may be a part): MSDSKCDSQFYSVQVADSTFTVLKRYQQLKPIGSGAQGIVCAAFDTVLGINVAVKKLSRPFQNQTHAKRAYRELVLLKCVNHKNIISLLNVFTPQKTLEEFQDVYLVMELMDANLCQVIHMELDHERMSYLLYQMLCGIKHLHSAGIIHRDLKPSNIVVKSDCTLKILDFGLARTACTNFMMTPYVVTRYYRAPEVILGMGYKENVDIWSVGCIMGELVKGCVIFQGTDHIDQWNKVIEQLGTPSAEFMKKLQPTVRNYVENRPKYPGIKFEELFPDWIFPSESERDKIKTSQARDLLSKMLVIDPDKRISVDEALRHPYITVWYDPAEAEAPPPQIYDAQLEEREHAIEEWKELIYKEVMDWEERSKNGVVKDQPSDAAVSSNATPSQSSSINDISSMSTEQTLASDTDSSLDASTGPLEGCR

[3] = target: Mitogen-activated protein kinase 14 (Homo sapiens) (UniProt Q16539); assay: Inhibition of MAPK p38alpha upto 100 uM
Mitogen-activated protein kinase 14 (Homo sapiens), sequence (Q16539 whole entry, the tested form may be a part): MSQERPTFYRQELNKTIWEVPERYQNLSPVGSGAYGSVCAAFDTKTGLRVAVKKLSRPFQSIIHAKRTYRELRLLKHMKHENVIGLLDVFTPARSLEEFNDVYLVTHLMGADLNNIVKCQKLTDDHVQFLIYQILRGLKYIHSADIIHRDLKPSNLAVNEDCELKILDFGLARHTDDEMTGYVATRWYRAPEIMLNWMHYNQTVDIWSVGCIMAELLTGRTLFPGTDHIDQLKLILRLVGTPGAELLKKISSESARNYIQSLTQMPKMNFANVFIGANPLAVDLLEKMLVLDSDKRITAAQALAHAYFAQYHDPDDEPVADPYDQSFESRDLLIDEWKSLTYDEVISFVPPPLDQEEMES

[4] = target: Mitogen-activated protein kinase 9 (Homo sapiens) (UniProt P45984); assay: Displacement of biotin-labeled pep-JIP1 from GST fused JNK2 by DELFIA assay

Structure (SMILES)	IC50 [1]	Activity [2]	IC50 [4]	also measured
CC1(C)CC(NC(=O)CCCNC(=O)c2ccc(-c3n[nH]c4ccccc34)cc2)CC(C)(C)N1O	1200 nM	–	–	–
CC(=O)N[C@@H](CC(C)C)C(=O)N[C@@H](CC(N)=O)C(=O)N[C@@H](CC(C)C)C(=O)NCC(=O)NCC(=O)O (Ac-LNLGG-OH)	–	inactive	–	–
CC(=O)N[C@@H](CC(C)C)C(=O)N[C@@H](CC(N)=O)C(=O)N[C@@H](CC(C)C)C(=O)O (Ac-Leu-Asn-Leu-OH)	–	inactive	–	–
CC(=O)N[C@@H](CCCNC(=N)N)C(=O)N1CCC[C@H]1C(=O)N[C@H](C(=O)N[C@H](C(=O)N[C@@H](CC(C)C)C(=O)N[C@@H](CC(N)=O)C(=O)N[C@@H](CC(C)C)C(=O)O)[C@@H](C)O)[C@@H](C)O (Ac-RPTTLNL-OH)	–	–	53000 nM	–

Second part, led by results:

IC50 [1]	Activity [2]	IC50 [4]	Structure (SMILES)	also measured
1400 nM	–	–	O=C(O)CCCNC(=O)c1ccc(-c2n[nH]c3ccccc23)cc1	–
295 nM	–	20 nM	CC(=O)N[C@@H](CC(C)C)C(=O)N[C@@H](CC(N)=O)C(=O)N[C@@H](CC(C)C)C(=O)NCC(=O)NCC(=O)NCCCNC(=O)c1ccc(-c2n[nH]c3ccccc23)cc1 (Ac-LNLGG-X1)	Activity [3]: inactive
